Source: ChEMBL document CHEMBL1201862, “PubChem BioAssay data set” (2004)
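Briefly, cells in 96-well plates were exposed to five compound concentrations for 48 h, and endpoints were estimated by linear interpolation. GI50 = concentration required for 50% inhibition of growth.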 Calls of active or inactive are those of the source. No stated cut-off is given here; in the data, active = GI50 up to about 1.1 µM and inactive = higher.

Assays:
Assay in all cases: NCI tumour cell line growth inhibition, 48 h
UACC-257 = test system: UACC-257
SK-MEL-28 = test system: SK-MEL-28
HCT-15 = test system: HCT-15
UO-31 = test system: UO-31
HOP-62 = test system: HOP-62
UACC-62 = test system: UACC-62
OVCAR-5 = test system: OVCAR-5
MOLT-4 = test system: MOLT-4
NCI-H226 = test system: NCI-H226
NCI-H460 = test system: NCI-H460
Malme-3M = test system: Malme-3M
RXF 393 = test system: RXF 393
HCT-116 = test system: HCT-116
CAKI-1 = test system: CAKI-1
COLO 205 = test system: COLO 205
SNB-75 = test system: SNB-75

Measured: GI50

S=C(Nc1ccccc1)N1N=C2c3ccccc3CC[C@H]2[C@@H]1c1ccccc1
2.02 µM: HCT-15
inactive: UACC-257 3.58 µM | SK-MEL-28 8.09 µM | UO-31 13.2 µM | HOP-62 4.22 µM | UACC-62 2.75 µM | OVCAR-5 > 100 µM | MOLT-4 4 µM | NCI-H226 4.23 µM | NCI-H460 3.64 µM | Malme-3M > 100 µM | RXF 393 2.12 µM | HCT-116 > 100 µM

CCCCOC(=O)CNC(=O)OCCCCC#CC#CCCCCOC(=O)NCC(=O)OCCCC
inactive: UACC-257 > 100 µM | CAKI-1 > 100 µM | UO-31 > 100 µM | HOP-62 > 100 µM | COLO 205 > 100 µM | UACC-62 > 100 µM | OVCAR-5 > 100 µM | MOLT-4 > 100 µM | SNB-75 > 100 µM | NCI-H226 > 100 µM | NCI-H460 > 100 µM | Malme-3M > 100 µM | HCT-116 > 100 µM

C/C=C/C1(C)/C(=N\O)C(C)(CCC)C(=O)N1O (stereo not drawn)
inactive: UACC-257 > 100 µM | CAKI-1 > 100 µM | SK-MEL-28 > 100 µM | UO-31 > 100 µM | HOP-62 > 100 µM | COLO 205 > 100 µM | UACC-62 > 100 µM | OVCAR-5 > 100 µM | MOLT-4 > 100 µM | SNB-75 > 100 µM | NCI-H226 > 100 µM | NCI-H460 > 100 µM | Malme-3M > 100 µM | RXF 393 > 100 µM | HCT-116 > 100 µM
> 100 µM: HCT-15

Cn1cc(NC(=O)c2cc(NC(=O)CCCCCCCCCC(=O)Nc3cc(C(=O)Nc4cc(C(=O)NCCC(=N)N)n(C)c4)n(C)c3)cn2C)cc1C(=O)NCCC(=N)N
39.3 µM: HCT-15
active: Malme-3M 0.971 µM
inactive: UACC-257 15.8 µM | CAKI-1 32 µM | SK-MEL-28 11.9 µM | UO-31 53.5 µM | HOP-62 24.5 µM | COLO 205 21.2 µM | UACC-62 31.2 µM | OVCAR-5 32.7 µM | MOLT-4 25.1 µM | SNB-75 27.9 µM | NCI-H226 > 100 µM | NCI-H460 23.9 µM | RXF 393 32.1 µM | HCT-116 24.5 µM

N#C/C(=C\c1ccccc1)C(NO)Nc1ccccc1 (stereo not drawn)
79.8 µM: HCT-15
inactive: UACC-257 > 100 µM | CAKI-1 86.5 µM | SK-MEL-28 > 100 µM | UO-31 68.7 µM | HOP-62 > 100 µM | COLO 205 45.3 µM | UACC-62 42.1 µM | OVCAR-5 > 100 µM | MOLT-4 31.9 µM | SNB-75 50.6 µM | NCI-H226 > 100 µM | NCI-H460 > 100 µM | Malme-3M > 100 µM | RXF 393 41.5 µM | HCT-116 40.7 µM

Nc1nc(Cl)cc(NCCCCCCNc2cc(Cl)nc(N)n2)n1
78.9 µM: HCT-15
inactive: UACC-257 59.6 µM | CAKI-1 27.7 µM | UO-31 > 100 µM | HOP-62 > 100 µM | COLO 205 > 100 µM | UACC-62 12 µM | OVCAR-5 16 µM | MOLT-4 48.2 µM | SNB-75 > 100 µM | NCI-H226 25.8 µM | NCI-H460 > 100 µM | RXF 393 > 100 µM | HCT-116 30.7 µM

O=C(CC(=O)C1CCOC1=O)C(=O)Nc1ccc(Cl)cc1Cl (stereo not drawn)
> 100 µM: HCT-15
inactive: UACC-257 > 100 µM | CAKI-1 > 100 µM | SK-MEL-28 > 100 µM | UO-31 > 100 µM | HOP-62 > 100 µM | COLO 205 > 100 µM | UACC-62 > 100 µM | OVCAR-5 > 100 µM | SNB-75 53.1 µM | NCI-H226 > 100 µM | NCI-H460 > 100 µM | Malme-3M > 100 µM | RXF 393 > 100 µM | HCT-116 > 100 µM

O=C(Nc1ccc(Cl)c(Cl)c1)C(=O)C(C(=O)c1ccccc1-c1ccccc1)C1OC(=O)c2ccccc21 (stereo not drawn)
inactive: UACC-257 18.9 µM | SK-MEL-28 > 100 µM | UO-31 15.6 µM | HOP-62 13.1 µM | COLO 205 15.6 µM | UACC-62 15.8 µM | OVCAR-5 18.5 µM | MOLT-4 14 µM | SNB-75 13 µM | NCI-H226 3.04 µM | NCI-H460 19.9 µM | Malme-3M 8.55 µM | RXF 393 8.15 µM | HCT-116 10.5 µM

C#Cc1cc(CN(CC(=O)OC(C)(C)C)CC(=O)OC(C)(C)C)nc(CN(CC(=O)OC(C)(C)C)CC(=O)OC(C)(C)C)c1
24.6 µM: HCT-15
active: NCI-H226 0.498 µM
inactive: UACC-257 2.82 µM | CAKI-1 10 µM | SK-MEL-28 7.5 µM | UO-31 3.71 µM | HOP-62 3.92 µM | COLO 205 7.36 µM | UACC-62 4.26 µM | OVCAR-5 21.6 µM | MOLT-4 2.62 µM | SNB-75 11.6 µM | NCI-H460 7.23 µM | Malme-3M 4.17 µM | RXF 393 2.84 µM

O=C1[C@@H]2C(c3ccc(Cl)cc3Cl)=NO[C@@H]2C(=O)N1c1ccc(Cc2ccc(N3C(=O)[C@H]4C(c5ccc(Cl)cc5Cl)=NO[C@H]4C3=O)cc2)cc1
inactive: UACC-257 41.6 µM | CAKI-1 60.4 µM | SK-MEL-28 67.1 µM | UO-31 > 100 µM | HOP-62 > 100 µM | COLO 205 50.9 µM | UACC-62 71.6 µM | OVCAR-5 > 100 µM | MOLT-4 17.3 µM | SNB-75 > 100 µM | NCI-H226 > 100 µM | Malme-3M 84.3 µM | RXF 393 13.6 µM
46.6 µM: HCT-15

Cc1cc(NS(=O)(=O)c2ccc(NC(=O)c3cccc4c(Nc5ccc(S(=O)(=O)Nc6cc(C)on6)cc5)c5ccccc5nc34)cc2)no1
inactive: UACC-257 > 100 µM | CAKI-1 70.1 µM | SK-MEL-28 40.3 µM | UO-31 38.7 µM | HOP-62 47.8 µM | COLO 205 62.4 µM | UACC-62 17.5 µM | OVCAR-5 > 100 µM | MOLT-4 34.1 µM | SNB-75 22.3 µM | NCI-H460 > 100 µM | Malme-3M > 100 µM | RXF 393 25.8 µM
> 100 µM: HCT-15

Cc1cc2c(c3c1c1ccccc1n3C)C(=O)c1ccccc1C2=O
> 100 µM: HCT-15
inactive: UACC-257 > 100 µM | SK-MEL-28 > 100 µM | UO-31 > 100 µM | HOP-62 > 100 µM | COLO 205 > 100 µM | UACC-62 > 100 µM | OVCAR-5 > 100 µM | MOLT-4 53.6 µM | SNB-75 > 100 µM | NCI-H460 > 100 µM | Malme-3M > 100 µM | RXF 393 > 100 µM | HCT-116 > 100 µM

CC1=NN(C(=O)c2ccc(Cl)cc2)C(=O)/C1=C/c1ccco1
inactive: UACC-257 > 100 µM | CAKI-1 > 100 µM | SK-MEL-28 > 100 µM | UO-31 > 100 µM | HOP-62 > 100 µM | COLO 205 > 100 µM | UACC-62 > 100 µM | OVCAR-5 > 100 µM | MOLT-4 > 100 µM | NCI-H460 > 100 µM | Malme-3M > 100 µM | RXF 393 > 100 µM | HCT-116 > 100 µM
> 100 µM: HCT-15

Cc1ccc(NC(=O)C2C(=O)C(=O)N(c3ccc(C)cc3)C2=O)cc1 (stereo not drawn)
> 100 µM: HCT-15
inactive: UACC-257 > 100 µM | SK-MEL-28 > 10 µM | UO-31 > 100 µM | HOP-62 93.3 µM | COLO 205 > 100 µM | UACC-62 > 100 µM | OVCAR-5 > 100 µM | MOLT-4 > 100 µM | NCI-H460 > 100 µM | Malme-3M > 100 µM | RXF 393 72.1 µM | HCT-116 > 100 µM

Cc1ccccc1CN1CC=c2ccccc2=N1
> 100 µM: HCT-15
inactive: UACC-257 > 100 µM | CAKI-1 > 100 µM | SK-MEL-28 > 100 µM | UO-31 50.1 µM | HOP-62 > 100 µM | COLO 205 > 100 µM | UACC-62 > 100 µM | OVCAR-5 > 100 µM | SNB-75 50.9 µM | NCI-H226 > 100 µM | NCI-H460 > 100 µM | Malme-3M > 100 µM | HCT-116 > 10 µM

COC(=O)C(CCC1(C)OCCO1)C(C)=O (stereo not drawn)
> 100 µM: HCT-15
inactive: UACC-257 > 100 µM | SK-MEL-28 > 100 µM | UO-31 > 100 µM | HOP-62 > 100 µM | COLO 205 > 100 µM | OVCAR-5 > 100 µM | MOLT-4 > 100 µM | SNB-75 > 100 µM | NCI-H226 > 100 µM | NCI-H460 > 100 µM | Malme-3M > 100 µM | RXF 393 > 100 µM | HCT-116 > 100 µM

CCCCCCCCCCCCCS(=O)(=O)O
> 100 µM: HCT-15
inactive: UACC-257 > 100 µM | SK-MEL-28 > 100 µM | UO-31 > 100 µM | HOP-62 > 100 µM | COLO 205 > 100 µM | UACC-62 > 100 µM | OVCAR-5 > 100 µM | SNB-75 > 100 µM | NCI-H226 > 100 µM | NCI-H460 > 100 µM | Malme-3M > 100 µM | RXF 393 > 100 µM | HCT-116 > 100 µM

CC1C[C@H](OC(N)=O)C(C)CC1=O (stereo partly drawn)
> 100 µM: HCT-15
inactive: UACC-257 > 100 µM | CAKI-1 > 100 µM | UO-31 > 100 µM | HOP-62 > 100 µM | COLO 205 > 100 µM | UACC-62 > 100 µM | OVCAR-5 > 100 µM | MOLT-4 > 100 µM | SNB-75 > 100 µM | NCI-H460 > 100 µM | Malme-3M > 100 µM | RXF 393 > 100 µM | HCT-116 > 100 µM

COc1cc(CCc2ccc(OC(C)=O)cc2)cc(OC)c1OC
inactive: UACC-257 > 100 µM | CAKI-1 > 100 µM | SK-MEL-28 > 100 µM | UO-31 73.3 µM | HOP-62 > 100 µM | COLO 205 > 100 µM | UACC-62 > 100 µM | OVCAR-5 72.4 µM | MOLT-4 > 100 µM | SNB-75 80.5 µM | NCI-H226 > 100 µM | NCI-H460 > 100 µM | Malme-3M > 100 µM | RXF 393 > 100 µM | HCT-116 > 100 µM
> 100 µM: HCT-15
